What was measured:
[1] = tested on: HCT-15; assay: Compound was tested for growth inhibition of multidrug resistant tumor HCT-15 cell line; format: functional; settings: Homo sapiens
[2] = tested on: NCI-H226; assay: Compound was tested for growth inhibition of multidrug resistant tumor NCI-H226 cell line; format: functional; settings: Homo sapiens
[3] = tested on: MCF7; assay: Compound was tested for growth inhibition of MCF-7 cell line (non multidrug resistant); format: functional; settings: Homo sapiens
[4] = tested on: NCI-H460; assay: Compound was tested for growth inhibition of human non-small cell lung cancer NCI-H460 cell line; format: functional
[5] = tested on: A549; assay: Inhibition of human non-small cell lung cancer A549 cell proliferation; format: functional
[6] = Compound was tested for inhibition of tubulin polymerisation
[7] = tested on: NCI/ADR-RES; assay: Compound was tested for growth inhibition of multidrug resistant tumor MCF-7/ADR cell line; format: functional; settings: Homo sapiens
[8] = tested on: HCT-116; assay: Compound was tested for growth inhibition of human colon carcinoma HCT116 cell line; format: functional
[9] = tested on: A498; assay: Compound was tested for growth inhibition of multidrug resistant tumor A498 cell line; format: functional; settings: Homo sapiens
[10] = Compound was tested for inhibition of tubulin polymerisation at 1 uM

| inhibition [10] [%] | SMILES | GI50 [1] [µM] | GI50 [2] [µM] | GI50 [3] [µM] | GI50 [4] [µM] | GI50 [5] [µM] | IC50 [6] [µM] | GI50 [7] [µM] | GI50 [8] [µM] | GI50 [9] [µM] |
| --- | --- | --- | --- | --- | --- | --- | --- | --- | --- | --- |
| – | O=C(NC1CCCCC1)N1CCc2cc(S(=O)(=O)N3C[C@H](c4ccccc4)NC3=O)ccc21 | 0.12 | 0.15 | 0.15 | 0.08 | 0.06 | 2 | 1.3 | 0.05 | 0.7 |
| – | O=C(CNc1ccccc1)N1CCc2cc(S(=O)(=O)N3C[C@H](c4ccccc4)NC3=O)ccc21 | 0.1 | 0.15 | 0.15 | 0.15 | 0.08 | 3.5 | 0.18 | 0.05 | 0.15 |
| – | Nc1ccc(C(=O)N2CCc3cc(S(=O)(=O)N4CC(c5cccs5)NC4=O)ccc32)cc1 (centres undefined) | – | – | – | 0.25 | 0.18 | 10.5 | – | 0.3 | – |
| – | CCOC(=O)Nc1ccc(S(=O)(=O)N2C[C@H](c3ccccc3)NC2=O)cc1C | 0.1 | 0.45 | 0.15 | 0.07 | 0.04 | 6 | 0.15 | 0.07 | 0.13 |
| – | O=C(c1ccc([N+](=O)[O-])o1)N1CCc2cc(S(=O)(=O)N3C[C@H](c4ccccc4)NC3=O)ccc21 | – | – | – | 0.95 | 0.95 | 40 | – | 0.27 | – |
| – | Nc1ccc(C(=O)Nc2ccc(S(=O)(=O)N3C[C@H](c4ccccc4)NC3=O)cc2Cl)cc1 | – | – | – | 0.06 | 0.06 | 5.5 | – | 0.06 | – |
| – | O=C(c1ccncc1)N1CCc2cc(S(=O)(=O)N3C[C@H](c4ccccc4)NC3=O)ccc21 | – | – | – | 0.09 | 0.13 | 10.3 | – | 0.08 | – |
| 82 | O=C(Cc1cccs1)N1CCc2cc(S(=O)(=O)N3C[C@H](c4ccccc4)NC3=O)ccc21 | – | – | – | 0.007 | 0.007 | < 1 | – | 0.006 | – |
| – | O=C(c1cc(Cl)nc(Cl)c1)N1CCc2cc(S(=O)(=O)N3C[C@H](c4ccccc4)NC3=O)ccc21 | – | – | – | 0.7 | 0.38 | 22 | – | 0.38 | – |
| – | CC(=O)O[C@H]1C(=O)[C@@]2(C)[C@H]([C@H](OC(=O)c3ccccc3)[C@]3(O)C[C@H](OC(=O)[C@H](O)[C@@H](NC(=O)c4ccccc4)c4ccccc4)C(C)=C1C3(C)C)[C@]1(OC(C)=O)CO[C@@H]1C[C@@H]2O [PACLITAXEL] | 0.3 | 20 | 0.01 | 0.007 | 0.01 | – | 8 | < 0.001 | 3.5 |
| – | Nc1ccc(C(=O)N2CCc3cc(S(=O)(=O)N4C[C@H](c5ccccc5)NC4=O)ccc32)cc1 | 0.12 | 0.1 | 0.01 | 0.02 | 0.02 | 1.5 | 2 | 0.01 | 1.2 |
| – | CN1CCN(CCOC(=O)N2CCc3cc(S(=O)(=O)N4C[C@H](c5ccccc5)NC4=O)ccc32)CC1 | – | – | – | 0.9 | 1 | 30 | – | 1 | – |
| – | O=C(c1ccco1)N1CCc2cc(S(=O)(=O)N3CC(c4cccs4)NC3=O)ccc21 (centres undefined) | – | – | – | 0.06 | 0.06 | 4 | – | 0.07 | – |
| – | CCOC(=O)N1CCc2cc(S(=O)(=O)N3C[C@H](c4ccccc4)NC3=O)ccc21 | – | – | – | 0.08 | 0.08 | 1.5 | – | 0.08 | – |
| – | O=C(NCCN1CCOCC1)N1CCc2cc(S(=O)(=O)N3C[C@H](c4ccccc4)NC3=O)ccc21 | – | – | – | 1 | 2.8 | – | – | 1.2 | – |
| – | O=C(c1cccs1)N1CCc2cc(S(=O)(=O)N3C[C@H](c4ccccc4)NC3=O)ccc21 | – | – | – | 0.02 | 0.02 | 1.6 | – | 0.01 | – |
| – | Nc1ccc(C(=O)N2CCc3cc(S(=O)(=O)N4CC(c5ccc(F)cc5)NC4=O)ccc32)cc1 (centres undefined) | – | – | – | 0.9 | 1.2 | – | – | 1.1 | – |
| – | CC[C@]1(O)C[C@H]2CN(CCc3c([nH]c4ccccc34)[C@@](C(=O)OC)(c3cc4c(cc3OC)N(C=O)[C@H]3[C@@](O)(C(=O)OC)[C@H](OC(C)=O)[C@]5(CC)C=CCN6CC[C@]43[C@@H]65)C2)C1 [VINCRISTINE] | – | – | – | 0.003 | 0.02 | – | – | 0.001 | – |

— ChEMBL document CHEMBL1138726, “Novel diarylsulfonylurea derivatives as potent antimitotic agents” (Bioorg Med Chem Lett, 2004)
